Assay results reported in publication PMC10824666 (Nature Cancer, 2023).
Like-named read-outs stand apart in the source and are kept apart here. One block for each compound: values may come before it.

Tests used:
Assay in all cases: biochemical
Parameters in all cases: Eurofins DiscoverX kinase panel, competitive binding assay at 1 uM, percent of DMSO control
Settings in all cases: competitive binding, percent of DMSO control
PKB α = biological target: T1, PKB α (Homo sapiens, UniProt P31749)
T1 construct: gene AKT1
T1 sequence (P31749 whole entry): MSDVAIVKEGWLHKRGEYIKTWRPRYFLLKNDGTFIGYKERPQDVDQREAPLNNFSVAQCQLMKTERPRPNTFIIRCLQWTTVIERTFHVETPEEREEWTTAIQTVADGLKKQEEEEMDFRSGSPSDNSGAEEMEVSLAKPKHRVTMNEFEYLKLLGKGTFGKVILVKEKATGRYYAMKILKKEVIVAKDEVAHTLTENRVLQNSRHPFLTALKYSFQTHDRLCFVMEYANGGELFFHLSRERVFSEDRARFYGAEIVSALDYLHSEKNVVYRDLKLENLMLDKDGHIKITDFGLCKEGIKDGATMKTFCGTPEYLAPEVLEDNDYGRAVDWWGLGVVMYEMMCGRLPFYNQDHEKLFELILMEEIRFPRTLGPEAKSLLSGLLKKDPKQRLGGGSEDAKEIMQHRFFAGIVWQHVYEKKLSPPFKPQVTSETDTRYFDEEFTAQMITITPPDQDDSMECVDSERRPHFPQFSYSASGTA
Summary of the method: (§1)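 Competitive binding assay across a 96-kinase panel with KIF18A compounds at 1 µM; values given as percentage of control (POC), single experiment.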

PI3K delta = biological target: T2, PI3K delta (Homo sapiens, UniProt O00329)
T2 construct: gene PIK3CD
T2 sequence (O00329 1-1044): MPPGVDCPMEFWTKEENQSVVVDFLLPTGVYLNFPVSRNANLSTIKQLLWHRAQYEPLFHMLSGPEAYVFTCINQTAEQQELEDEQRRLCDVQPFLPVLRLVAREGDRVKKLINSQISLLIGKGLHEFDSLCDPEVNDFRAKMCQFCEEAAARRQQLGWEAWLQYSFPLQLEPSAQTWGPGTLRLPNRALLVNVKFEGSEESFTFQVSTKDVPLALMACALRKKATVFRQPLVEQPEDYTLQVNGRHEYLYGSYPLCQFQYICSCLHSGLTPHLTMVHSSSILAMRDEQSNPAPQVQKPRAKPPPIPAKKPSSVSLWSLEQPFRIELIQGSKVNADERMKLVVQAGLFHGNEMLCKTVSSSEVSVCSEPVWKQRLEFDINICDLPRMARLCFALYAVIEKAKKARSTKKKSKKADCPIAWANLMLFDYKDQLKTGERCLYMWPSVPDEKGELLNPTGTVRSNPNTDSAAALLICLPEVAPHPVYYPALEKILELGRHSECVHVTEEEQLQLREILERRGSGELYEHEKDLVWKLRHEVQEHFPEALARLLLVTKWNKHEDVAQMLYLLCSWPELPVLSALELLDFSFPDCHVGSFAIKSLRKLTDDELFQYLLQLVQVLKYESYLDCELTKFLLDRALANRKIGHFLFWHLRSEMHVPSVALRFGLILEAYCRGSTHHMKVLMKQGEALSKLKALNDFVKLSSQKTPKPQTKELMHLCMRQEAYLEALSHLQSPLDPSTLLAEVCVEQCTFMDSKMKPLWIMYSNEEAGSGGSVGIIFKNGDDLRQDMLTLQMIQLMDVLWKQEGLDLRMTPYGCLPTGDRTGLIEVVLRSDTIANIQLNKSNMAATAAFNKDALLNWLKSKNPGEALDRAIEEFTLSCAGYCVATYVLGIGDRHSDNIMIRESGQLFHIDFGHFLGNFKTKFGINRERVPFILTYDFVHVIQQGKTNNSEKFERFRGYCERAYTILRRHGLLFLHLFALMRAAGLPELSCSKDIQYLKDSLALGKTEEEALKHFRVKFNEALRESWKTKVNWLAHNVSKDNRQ
Summary of the method: as §1

TGFBR1 = biological target: T3, TGFBR1 (Homo sapiens, UniProt P36897)
T3 sequence (P36897 1-503): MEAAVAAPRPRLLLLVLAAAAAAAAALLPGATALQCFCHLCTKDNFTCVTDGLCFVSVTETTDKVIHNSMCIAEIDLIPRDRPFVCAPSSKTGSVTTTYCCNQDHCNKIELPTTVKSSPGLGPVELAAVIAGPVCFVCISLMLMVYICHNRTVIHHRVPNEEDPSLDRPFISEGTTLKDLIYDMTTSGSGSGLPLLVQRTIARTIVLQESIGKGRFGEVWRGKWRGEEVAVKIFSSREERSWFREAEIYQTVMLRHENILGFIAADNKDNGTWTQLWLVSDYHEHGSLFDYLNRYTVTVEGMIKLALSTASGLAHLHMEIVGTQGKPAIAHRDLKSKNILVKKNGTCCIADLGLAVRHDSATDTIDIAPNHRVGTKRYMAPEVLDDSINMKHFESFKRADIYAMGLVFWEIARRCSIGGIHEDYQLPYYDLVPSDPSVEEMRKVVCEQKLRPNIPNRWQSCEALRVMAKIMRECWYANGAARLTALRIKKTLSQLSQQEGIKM
Summary of the method: as §1

[1] = read-out: Kinome Profiling performed by Eurofins DiscoverX / AM-0277, 1.0 µM / POC
[2] = read-out: Kinome Profiling performed by Eurofins DiscoverX / AM-1882, 1.0 µM / POC
[3] = read-out: Kinome Profiling performed by Eurofins DiscoverX / AM-5308, 1.0 µM / POC

remaining activity at 1 µM (PKB α; [1]): 94%
remaining activity at 1 µM (PI3K delta; [1]): 100%
remaining activity at 1 µM (TGFBR1; [1]): 73%
Structure (SMILES): CC(C)(CO)Nc1ccc(C(=O)Nc2cccc(S(=O)(=O)C3CCCC3)c2)c(N2CCC3(CC2)CC3)n1 [AM-0277]

remaining activity at 1 µM (PKB α; [2]): 100%
remaining activity at 1 µM (PI3K delta; [2]): 96.5%
remaining activity at 1 µM (TGFBR1; [2]): 94%
Structure (SMILES): CC(C)(C)NS(=O)(=O)c1cccc(NC(=O)c2ccc(S(=O)(=O)NC(C)(C)C)cc2N2CCC3(CC2)CC3)c1 [AM-1882]

remaining activity at 1 µM (PKB α; [3]): 100%
remaining activity at 1 µM (PI3K delta; [3]): 68%
remaining activity at 1 µM (TGFBR1; [3]): 100%
Structure (SMILES): C[C@@H]1CN(c2cccc(NC(=O)c3ccc(NS(=O)(=O)CCO)cc3N3CCC4(CC3)CC4)n2)CCO1 [AM-5308]
